Results on 18 molecules are retold here after US11903926B1, “Non-hormonal treatment of hot flashes” (priority 2012, dated 2024).

Like-named read-outs stand apart in the source and are kept apart here.

In data set [1] the test system is women with menopausal symptoms including hot flashes. The following applies: for hot flashes under existing medication: already treated for neuropathic pain and depression; for benefit in sleep cycle: standard sedative hypnotics for insomnia.
Experimental: The patients were treated by escalating the dose of ropinirole to 4 mg, testing the hypothesis of a dopaminergically regulated pathway within the central nervous system which impacts hot flashes.
Therefore, the initial dose provided was 1 mg at bedtime, and the dose was raised as needed, every fourth day, to a maximum of 8 mg, if needed, usually at bedtime.
Safety monitoring included making certain there were no issues with liver function, low blood pressure or unusual dreams as this was accomplished. Tizanidine could, if needed, be dosed again during the night without causing a morning “hangover” effect providing there was a four hour sleep window available.
Ropinirole titration was initiated with 0.25 mg at bedtime, and if tolerated, by escalating the dose by 0.25 mg every fourth day to a maximum of 1 mg (i.e., 0.25 mg, 0.50 mg, 0.75 mg, 1 mg), until there was reduction in both the frequency and severity of hot flashes. If higher doses were needed, then both 1 mg, or later 2 mg and both 1 and 2 mg ropinirole tablets were used along with the continued titration by 0.25 mg steps every fourth day until a maximum of 4 mg was reached.
For data set [2], the system named is women with dramatic vasomotor hot flashes and sleep disruption. The experiment in a line: Clinical study of six women with vasomotor hot flashes and sleep disruption, symptoms graded 0-4. It is filed as in vivo. The following applies: for effect on vasomotor / hot flash symptoms (in words) / effect on sleep (in words): six women, agent alone; for effect on vasomotor / hot flash symptoms (in words): versus untreated; for Hot Flash Severity: grade 0-4 (duration), average of six women; for Hot Flash Frequency: end of treatment period (up to four weeks), ropinirole 4 mg, tizanidine 4 mg, clonidine 0.1 mg, rotigotine 1 mg, pramipexole 1.5 mg, chlorpromazine 25 mg, haloperidol 1 mg, venlafaxine 75 mg, paroxetine 20 mg, gabapentin 300 mg, pregabilin 50 mg. Here is the method:
Patients were on each regimen at the doses cited for up to four weeks.
Symptoms were evaluated on a scale from 0 to 4, with 0 being not affected, 1 being mild, 2 being moderate, 3 being severe, and 4 being a very severe expression of either vasomotor symptom frequency, severity, sweating, falling asleep and waking during the night for each patient and evaluated at the end of the treatment period. The findings reported are based on an average of the reported symptoms of the six women studied.
Specifically, regarding hot flash frequency, evaluation was based upon the number of hot flashes per day. The frequency of hot flashes was graded on a scale of 0-4, with 0 as none detected, 1 as 1-4/day (mild), 2 as 5-8/day (moderate), 3 as 9-12/day (severe), and 4 as more than 12/day (very severe).
The severity of the hot flashes, reflecting hot flash duration, was also graded on a scale of 0-4, with 0 being not detected, 1 being mild (less than 1 minute), 2 moderate (1-2 minutes), 3 severe (2-3 minutes), and 4 very severe (greater than 4 minutes). This evaluation reflects the duration and intensity as rated by the individual.
The sweating response was graded on a scale of 0-4 as well, with 0 being not detected, 1 being mild (minimally moist skin), 2 moderate (moisture of the skin), 3 severe (noticeable perspiration, hair, ears, neck, chest), and 4 very severe (soaking sweat).
Falling asleep was also graded on a scale of 0-4, with 0 being no issue (less than 15 minutes), 1 being mild (15-20 minutes), 2 moderate (20-40 minutes), 3 severe (40-60 minutes), and 4 very severe (greater than 60 minutes).
Wakings were graded on a scale of 0-4 as well, with 0 being not detected, 1 being mild (1-5 wakings/night), 2 moderate (5-10 wakings/night), 3 severe (10-15 wakings/night), and 4 very severe (greater than 15 wakings/night).
The D2 receptor family (D2, D3 or D4) agonists ropinirole, rotigotine and pramipexole were examined, and contrasted with D2 receptor family antagonists chlorpromazine or haloperidol. Ropinirole and pramipexole were evaluated alone and with either alpha-2-adrenergic agonist tizanidine or clonidine.
Venlafaxine, paroxetine, gabapentin, and pregabilin were also evaluated in comparison with tizanidine.

Data set [3] concerns hot flashes, including vasomotor symptoms of menopause. The experiment in a line: Observed activity of D2 family agonists tested in controlling hot flashes. The class given is in vivo. The following applies: D2 family members tested to date.
Data set [4] relates to women with menopausal vasomotor symptoms and sleep disruption. The experiment in a line: Clinical study of eight women with menopausal vasomotor symptoms and sleep disruption, symptoms graded 1-4. It is filed as in vivo. The following applies: for effect on vasomotor symptoms (in words) / effect on sleep (in words): eight women; for effect on sleep (in words): agent alone; for Hot Flash Frequency / Sweating / Wakings / Falling Asleep / Hot Flash Severity: grade 1-4, average of eight women, ropinirole 4 mg, tizanidine 4 mg, ramelteon 8 mg; for Hot Flash Frequency: at bedtime for at least four weeks; for Hot Flash Frequency / Falling Asleep / Hot Flash Severity: untreated = 4; for Sweating / Wakings / Falling Asleep / Hot Flash Severity: at least four weeks; for Sweating / Wakings: untreated = 3. On the procedure: Patients were on each regimen at the doses cited for at least four weeks.
Symptoms were evaluated on a scale from 1 to 4, with 1 being mild, 2 being moderate, 3 being severe, and 4 being a very severe expression of either vasomotor symptom frequency, severity, sweating, falling asleep and wakings during the night were evaluated for each patient and evaluate at the end of the treatment period. The findings were based on an average of the reported symptoms of the eight women studied.
Specifically with respect to hot flash frequency, evaluation was based upon the number of hot flashes per day. The frequency of the hot flashes was graded on a scale of 1-4, with 1 as 1-4/day (mild), 2 as 5-8/day (moderate), 3 as 9-12/day (severe), and 4 as more than 12/day (very severe).
The severity of the hot flashes was graded on a scale of 1-4, with 1 being mild (less than 1 minute), 2 moderate (1-2 minutes), 3 severe (2-3 minutes), and 4 very severe (greater than 4 minutes). This evaluation reflects the duration and intensity as rated by the individual.
The sweating response was graded on a scale of 1-4, with 1 being mild (minimally moist skin), 2 moderate (moisture on skin), 3 severe (noticeable perspiration, hair, ears, neck, chest), and 4 very severe (soaking sweat).
Falling asleep was graded on a scale of 1-4, with 1 being mild (15-20 minutes), 2 moderate (20-40 minutes), 3 severe (40-60 minutes), and 4 very severe (greater than 60 minutes).
Wakings were graded on a scale of 1-4, with 1 being mild (1-5 wakings/night), 2 moderate (5-10 wakings/night), 3 severe (10-15 wakings/night), and 4 very severe (greater than 15 wakings/night).

Where [5] appears, read: up to four weeks, untreated = 3.
The mark [6] stands for this setting: grade 0-4, average of six women, untreated = 3.
The mark [7] stands for this setting: patients of the case studies, ropinirole escalated from 0.25 mg to 4 mg at bedtime.

For the molecule `CC(C)(C#N)c1cc(Cn2cncn2)cc(C(C)(C)C#N)c1` [anastrozole], the “effect on hot flashes (side effect of aromatase inhibitor)” value in data set [1] (patient three, anastrozole 1 mg daily) is given as “exacerbated the hot flashes”.

With `NCC1(CC(=O)O)CCCCC1` [Gabapentin, gabapentin], the “effect on vasomotor / hot flash symptoms (in words)” value in data set [2] is listed as “reduced hot flash symptoms over untreated patients”. Further, the “hot flashes under existing medication” value in data set [1] (patient two) is reported as “developed these hot flash symptoms despite those medications”.

Turning to `CN(C)CCCN1c2ccccc2Sc2ccc(Cl)cc21` [Chlorpromazine, chlorpromazine], the “effect on vasomotor / hot flash symptoms (in words)” value in data set [2] was “aggravated menopausal symptoms”.

On to `Clc1cccc(Cl)c1N=C1NCCN1` [Clonidine, clonidine], for which, in data set [2], the “effect on sleep (in words)” value is given as “impressive effect on sleep” and the “effect on vasomotor / hot flash symptoms (in words)” value is recorded as “very modest reduction in vasomotor symptoms”. In data set [1] (patient two), the “hot flashes under existing medication” value is reported as “developed these hot flash symptoms despite those medications”.

`O=C(CCCN1CCC(O)(c2ccc(Cl)cc2)CC1)c1ccc(F)cc1` [Haloperidol, haloperidol]: in data set [2], the “effect on vasomotor / hot flash symptoms (in words)” value was “aggravated menopausal symptoms”.

For `CCCN(CCc1cccs1)[C@H]1CCc2c(O)cccc2C1` [Rotigitine, rotigotine], the “Hot Flash Severity” value in data set [2] (setting [5]) is 0. Besides, the “Hot Flash Frequency” value in data set [2] (setting [6]) is listed as 0. Also, the “Falling Asleep” value in data set [2] (grade 0-4, average of six women, up to four weeks, untreated = 2) is recorded as 0 (0 being no issue (less than 15 minutes)). Moreover, in data set [2] (grade 0-4, average of six women, up to four weeks, untreated = 3), the Sweating was 0. Moreover, the Wakings in data set [2] (grade 0-4, average of six women, up to four weeks, untreated = 4) is 1 (1 being mild (1-5 wakings/night)). In data set [2], the “effect on sleep (in words)” value was “limited impact on sleep”; the “effect on vasomotor / hot flash symptoms (in words)” value is “notable reduction in frequency and severity of vasomotor symptoms”. In addition, the “activity in controlling hot flashes” value in data set [3] is reported as “unique activity”.

On to `O=C1CN=C(c2ccccc2Cl)c2cc([N+](=O)[O-])ccc2N1` [clonazepam], for which the “benefit in sleep cycle” value in data set [1] (patient three) is reported as “no significant benefit in sleep cycle”.

On to `Fc1ccc([C@@H]2CCNC[C@H]2COc2ccc3c(c2)OCO3)cc1` [Paroxetine, paroxetine], for which the “effect on vasomotor / hot flash symptoms (in words)” value in data set [2] is reported as “reduced hot flash symptoms over untreated patients”.

On to `CCCN(CCC)CCc1cccc2c1CC(=O)N2` [Ropinirole, ropinirole], for which, in data set [2] (setting [5]), the “Hot Flash Severity” value is recorded as 0. In addition, the “Hot Flash Frequency” value in data set [2] (setting [6]) turned out to be 0. In data set [2], the “effect on sleep (in words)” value is listed as “limited impact on sleep”; the “effect on vasomotor / hot flash symptoms (in words)” value was “notable reduction in frequency and severity of vasomotor symptoms”. Further, the side effects result in data set [1] (patient one, ropinirole 4 mg daily at bedtime with tizanidine 8 mg) is listed as “without side effects”. Moreover, the “vasomotor symptoms (hot flashes)” value in data set [1] (patient one, ropinirole 4 mg daily at bedtime with tizanidine 8 mg at bedtime, 15-20 hot flashes per day before) was “totally eliminated the vasomotor symptoms (hot flashes)”. Further, in data set [1] (patient three, ropinirole removed (symptoms returned) and re-administered at 4 mg), the “hot flashes on re-administration after removal” value is “the hot flashes once again disappeared”. Also, in data set [1] (patient two, ropinirole 4 mg at bedtime with tizanidine 8 mg), the side effects entry is “without untoward side effects”. Besides, the “frequency and severity of hot flashes” value in data set [1] (patient two, ropinirole 4 mg at bedtime with tizanidine 8 mg at bedtime, 10-15 hot flashes per day before) is “complete resolution of the frequency and severity of the hot flashes”. Further, in data set [1] (setting [7]), the “effect on hot flashes of menopause” value is given as “dramatic shutdown of previously intolerable hot flashes of menopause” and the side effects result was “without side effects”. Moreover, in data set [3], the “activity in controlling hot flashes” value was “unique activity”. Besides, in data set [4], the “effect on vasomotor symptoms (in words)” value was “notable, but incomplete reduction in frequency and severity of vasomotor symptoms”; the “effect on sleep (in words)” value is recorded as “limited impact on sleep”; the “Hot Flash Frequency” value is 1 (1 as 1-4/day (mild)); the Sweating came out at 1. In addition, in data set [4], the Wakings was 3 (3 severe (10-15 wakings/night)), the “Falling Asleep” value is 3 (3 severe (40-60 minutes)) and the “Hot Flash Severity” value is 1 (1 being mild (less than 1 minute)).

As to `Clc1ccc2nsnc2c1NC1=NCCN1` [Tizanidine, tizanidine], in data set [2], the “effect on sleep (in words)” value is recorded as “impressive effect on sleep” and the “effect on vasomotor / hot flash symptoms (in words)” value is given as “very modest reduction in vasomotor symptoms”. Moreover, the sleep entry in data set [1] (patient one, tizanidine 8 mg at bedtime) is on record as “facilitate sleep, which it did”. Moreover, in data set [1] (patient three, tizanidine 1 mg raised up to 8 mg at bedtime), the sleep result is reported as “able to sleep through the night”. In addition, in data set [4], the “effect on vasomotor symptoms (in words)” value is given as “very modest reduction in vasomotor symptoms”, the “effect on sleep (in words)” value is given as “more impressive effect on sleep”, the “Hot Flash Frequency” value is recorded as 3 (3 as 9-12/day (severe)) and the Sweating worked out at 3. In data set [4], the Wakings was 2 (2 moderate (5-10 wakings/night)), the “Falling Asleep” value is 2 (2 moderate (20-40 minutes)) and the “Hot Flash Severity” value is 3 (3 severe (2-3 minutes)).

Regarding `CCC(=O)NCC[C@@H]1CCc2ccc3c(c21)CCO3` [Ramelteon, ramelteon], in data set [4], the “effect on vasomotor symptoms (in words)” value is on record as “no impact on vasomotor symptoms”, the “effect on sleep (in words)” value is reported as “only a limited impact on sleep”, the “Hot Flash Frequency” value is on record as 4 (4 as more than 12/day (very severe)) and the Sweating is recorded as 3. In data set [4], the Wakings is given as 3 (3 severe (10-15 wakings/night)), the “Falling Asleep” value is given as 3 (3 severe (40-60 minutes)) and the “Hot Flash Severity” value was 4 (4 very severe (greater than 4 minutes)).

For the molecule `COc1ccc(C(CN(C)C)C2(O)CCCCC2)cc1` (stereo not shown) [Venlafaxine], the “effect on vasomotor / hot flash symptoms (in words)” value in data set [2] is given as “reduced hot flash symptoms over untreated patients”. Further, the “hot flashes under existing medication” value in data set [1] (patient two) is “developed these hot flash symptoms despite those medications”.

On to `CCCN[C@H]1CCc2nc(N)sc2C1` [Pramipexole], for which the “Hot Flash Severity” value in data set [2] (setting [5]) is on record as 0. Moreover, in data set [2] (setting [6]), the “Hot Flash Frequency” value is given as 0.

With `CCN(C(C)=O)c1cccc(-c2ccnc3c(C#N)cnn23)c1` [zaleplon], the “benefit in sleep cycle” value in data set [1] (patient three) was “no significant benefit in sleep cycle”.

Take `CC(C)C[C@H](CN)CC(=O)O` [Pregabilin, pregabalin]: in data set [2], the “effect on vasomotor / hot flash symptoms (in words)” value is recorded as “reduced hot flash symptoms over untreated patients”.

With `CN1C(=O)C(O)N=C(c2ccccc2)c2cc(Cl)ccc21` (stereo not shown) [temazepam], the “benefit in sleep cycle” value in data set [1] (patient three) is on record as “no significant benefit in sleep cycle”.

Turning to `c1cnc(N2CCN(Cc3ccc4c(c3)OCO4)CC2)nc1` [piribedil], the “activity in controlling hot flashes” value in data set [3] is recorded as “unique activity”.

For the molecule `Cc1ccc(-c2nc3ccc(C)cn3c2CC(=O)N(C)C)cc1` [zolpidem], the “benefit in sleep cycle” value in data set [1] (patient three) was “no significant benefit in sleep cycle”.
